Structures are written as SMILES. Active and inactive are the calls of the source. The calls are words filed in the database; no cut-off is given here. Where only a bound is given, the exact number is not on record here.

Assay [1] addresses T1, Protein cereblon/Histone acetyltransferase p300 (Homo sapiens, UniProt Q09472+Q96SW2). Briefly: PROTAC activity at CRBN/p300 in human SK-HEP1 cells assessed as induction of p300 protein degradation at 0.01 uM incubated for 24 hrs relative to control. Type of assay: cell-based.
For assay [2], the target named is T1, Protein cereblon/Histone acetyltransferase p300. The assay can be described thus: PROTAC activity at CRBN/p300 in human SK-HEP1 cells assessed as induction of p300 protein degradation at 0.1 uM incubated for 24 hrs relative to control. The assay is classed as cell-based.
Assay [3] shares this target. Briefly: PROTAC activity at CRBN/p300 in human SK-HEP1 cells assessed as induction of p300 protein degradation at 1 uM incubated for 24 hrs relative to control. Type of assay: cell-based.
Assay [4] deals with SK-HEP1. Briefly: Antiproliferative activity against human SK-HEP1 cells assessed as inhibition of cell growth incubated for 5 days by CCK-8 assay. Type of assay: functional, cell-based. To be noted: SK-HEP1, 120 h. Background: Formazan colour is commonly taken as a measure of viable cells.
A short description of assay [5]: Antiproliferative activity against human JHH7 cells assessed as inhibition of cell growth incubated for 5 days by CCK-8 assay. Type of assay: functional, cell-based. To be noted: JHH7, 120 h.
The subject of assay [6] is SK-HEP1. Briefly: Induction of cell cycle arrest at G2/M phase in human SK-HEP1 cells assessed as SKP2 protein level at 2 uM incubated for 24 hrs by immunoblotting analysis (reference value: 100%). The assay is classed as functional. On the technique in general: In western blotting, separated proteins are transferred to a membrane and probed.
The subject of assay [7] is SK-HEP1. Briefly: Induction of cell cycle arrest at G2/M phase in human SK-HEP1 cells assessed as reduction in CDK6 protein level at 2 uM incubated for 24 hrs by immunoblotting analysis (reference value: 100%). The assay is classed as functional. On the set-up: scale not given: the % may be the effect or the level left.
Assay [8] deals with CREB-binding protein/Histone acetyltransferase p300 (Homo sapiens, UniProt Q09472+Q92793). Briefly: Inhibition of p300/CBP (unknown origin) using histone H3 (1 to 21 residues) as substrate incubated for 90 mins by AlphaLISA assay. Type of assay: protein assay. A general note: In Alpha technology, singlet oxygen from a donor bead excites a nearby acceptor bead.
Assay [9] concerns Mus musculus. Briefly: In vivo PROTAC activity at CRBN/p300 in nude mouse xenografted with human SK-HEP1 cells assessed as reduction in p300 protein level in tumor at 50 mg/kg, ip measured after 24 hrs by immunoblotting analysis. Type of assay: functional, organism-based.
The target of assay [10] is Protein cereblon/CREB-binding protein (Homo sapiens) (UniProt Q92793+Q96SW2). The assay can be described thus: In vivo PROTAC activity at CRBN/CBP in nude mouse xenografted with human SK-HEP1 cells assessed as reduction in CBP protein level in tumor at 50 mg/kg, ip measured after 24 hrs by immunoblotting analysis. Type of assay: functional, organism-based.
Assay [11] has as its target T1, Protein cereblon/Histone acetyltransferase p300. Briefly: PROTAC activity at CRBN/p300 in human SK-HEP1 cells assessed as increase in protein ubiquitination at 2 uM incubated for 24 hrs by immunoblotting analysis (reference value: 100%). The assay is classed as cell-based.
Assay [12] shares this target. Briefly: PROTAC activity at CRBN/p300 in human SK-HEP1 cells assessed as increase in protein ubiquitination at 2 uM pretreated with MG132 at 1 uM followed by compound treatment and further incubated for 24 hrs by immunoblotting analysis (reference value: 100%). The assay is classed as cell-based.

T1 sequence (Q09472 2-2414 limits assumed): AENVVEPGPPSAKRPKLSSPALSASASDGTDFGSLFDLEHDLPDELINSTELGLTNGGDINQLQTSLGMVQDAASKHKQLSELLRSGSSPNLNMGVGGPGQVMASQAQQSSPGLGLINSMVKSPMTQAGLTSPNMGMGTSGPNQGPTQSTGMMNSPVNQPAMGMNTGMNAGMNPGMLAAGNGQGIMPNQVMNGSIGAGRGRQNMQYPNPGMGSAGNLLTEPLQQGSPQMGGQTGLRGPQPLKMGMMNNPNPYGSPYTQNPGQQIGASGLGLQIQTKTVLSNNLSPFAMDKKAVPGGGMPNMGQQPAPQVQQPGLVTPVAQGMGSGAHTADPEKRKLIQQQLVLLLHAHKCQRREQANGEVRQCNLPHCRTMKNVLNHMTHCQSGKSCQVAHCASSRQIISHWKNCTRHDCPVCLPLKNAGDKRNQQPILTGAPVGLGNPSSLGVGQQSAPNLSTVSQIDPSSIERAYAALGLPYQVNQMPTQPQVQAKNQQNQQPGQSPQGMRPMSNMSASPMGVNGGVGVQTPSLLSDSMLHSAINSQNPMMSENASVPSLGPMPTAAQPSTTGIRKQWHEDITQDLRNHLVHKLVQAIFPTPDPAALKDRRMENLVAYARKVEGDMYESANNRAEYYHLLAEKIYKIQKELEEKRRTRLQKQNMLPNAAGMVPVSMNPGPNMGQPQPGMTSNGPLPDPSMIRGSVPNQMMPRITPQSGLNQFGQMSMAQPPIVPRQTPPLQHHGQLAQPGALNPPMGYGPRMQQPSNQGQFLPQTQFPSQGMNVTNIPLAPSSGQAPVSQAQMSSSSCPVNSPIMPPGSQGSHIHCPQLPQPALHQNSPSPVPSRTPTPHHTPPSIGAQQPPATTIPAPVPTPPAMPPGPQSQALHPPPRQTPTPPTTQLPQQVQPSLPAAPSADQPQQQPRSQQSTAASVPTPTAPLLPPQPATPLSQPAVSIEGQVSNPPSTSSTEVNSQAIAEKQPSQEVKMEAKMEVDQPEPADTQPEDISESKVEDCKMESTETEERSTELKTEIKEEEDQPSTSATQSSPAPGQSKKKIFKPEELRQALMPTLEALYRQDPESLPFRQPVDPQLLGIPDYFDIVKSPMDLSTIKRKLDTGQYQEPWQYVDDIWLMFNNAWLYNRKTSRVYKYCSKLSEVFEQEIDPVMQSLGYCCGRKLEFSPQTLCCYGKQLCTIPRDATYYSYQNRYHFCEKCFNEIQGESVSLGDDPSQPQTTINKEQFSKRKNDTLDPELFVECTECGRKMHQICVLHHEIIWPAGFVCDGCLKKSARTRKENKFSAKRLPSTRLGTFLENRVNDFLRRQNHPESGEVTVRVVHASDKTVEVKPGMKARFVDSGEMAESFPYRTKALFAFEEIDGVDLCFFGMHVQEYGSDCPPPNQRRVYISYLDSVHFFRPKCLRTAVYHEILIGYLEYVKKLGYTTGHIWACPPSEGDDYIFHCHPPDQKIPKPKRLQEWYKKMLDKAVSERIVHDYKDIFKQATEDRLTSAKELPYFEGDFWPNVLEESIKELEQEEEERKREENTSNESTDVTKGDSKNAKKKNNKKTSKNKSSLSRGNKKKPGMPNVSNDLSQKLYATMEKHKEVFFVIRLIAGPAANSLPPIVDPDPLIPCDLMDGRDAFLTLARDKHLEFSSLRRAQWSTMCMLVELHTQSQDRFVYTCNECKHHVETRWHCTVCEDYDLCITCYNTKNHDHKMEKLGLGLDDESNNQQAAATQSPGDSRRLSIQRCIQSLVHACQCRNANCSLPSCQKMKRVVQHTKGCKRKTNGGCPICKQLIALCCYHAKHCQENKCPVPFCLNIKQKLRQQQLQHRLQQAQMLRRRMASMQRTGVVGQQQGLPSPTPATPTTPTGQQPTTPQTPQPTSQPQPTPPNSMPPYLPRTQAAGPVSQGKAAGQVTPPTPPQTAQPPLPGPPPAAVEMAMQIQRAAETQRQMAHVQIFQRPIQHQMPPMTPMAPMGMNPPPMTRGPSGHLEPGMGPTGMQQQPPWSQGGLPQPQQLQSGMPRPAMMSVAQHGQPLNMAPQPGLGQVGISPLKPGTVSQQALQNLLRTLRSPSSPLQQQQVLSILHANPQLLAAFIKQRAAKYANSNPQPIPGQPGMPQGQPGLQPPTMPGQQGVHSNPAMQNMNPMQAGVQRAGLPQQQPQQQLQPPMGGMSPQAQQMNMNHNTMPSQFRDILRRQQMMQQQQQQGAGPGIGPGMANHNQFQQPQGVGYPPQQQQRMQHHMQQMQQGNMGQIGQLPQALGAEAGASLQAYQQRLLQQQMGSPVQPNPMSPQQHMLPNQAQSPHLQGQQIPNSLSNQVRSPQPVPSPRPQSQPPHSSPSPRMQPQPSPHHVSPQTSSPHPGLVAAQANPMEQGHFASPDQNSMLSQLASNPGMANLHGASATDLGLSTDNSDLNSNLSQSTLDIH
T1 sequence (Q96SW2 whole entry partner): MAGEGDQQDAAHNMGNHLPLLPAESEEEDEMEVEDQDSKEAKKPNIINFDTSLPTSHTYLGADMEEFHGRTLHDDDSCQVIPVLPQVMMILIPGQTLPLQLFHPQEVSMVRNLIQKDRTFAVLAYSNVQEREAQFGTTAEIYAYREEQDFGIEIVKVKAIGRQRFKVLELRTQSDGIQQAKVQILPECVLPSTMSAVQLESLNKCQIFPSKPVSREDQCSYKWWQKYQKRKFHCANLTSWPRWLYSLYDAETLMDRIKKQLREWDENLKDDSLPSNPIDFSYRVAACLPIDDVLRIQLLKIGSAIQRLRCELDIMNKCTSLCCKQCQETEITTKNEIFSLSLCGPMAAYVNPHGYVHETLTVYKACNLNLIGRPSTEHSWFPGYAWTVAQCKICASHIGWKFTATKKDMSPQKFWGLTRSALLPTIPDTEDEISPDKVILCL

Take `Cc1noc(C)c1-c1ccc2c(c1)nc([C@@H]1CCCC(=O)N1c1ccc(F)c(F)c1)n2C1CCN(C(=O)CCOCCOCCNc2cccc3c2C(=O)N(C2CCC(=O)NC2=O)C3=O)CC1` (stereo partly specified): the Activity in [1] is below 1%; in assay [2] it was 2%; in assay [3] it was 25%.

Broadly, the IC50 is the concentration needed to halve the response being measured. `CO[C@H]1CC[C@H](n2c([C@@H]3CCCC(=O)N3c3ccc(F)c(F)c3)nc3cc(-c4c(C)noc4C)ccc32)CC1` [INOBRODIB]: the IC50 in [4] worked out at 4.68 µM; in [5], 9.7 µM. Moreover, the Activity came to 95% in assay [6] and 96% in assay [7].

`Cc1noc(C)c1-c1ccc2c(c1)nc([C@@H]1CCCC(=O)N1c1ccc(F)c(F)c1)n2C1CCN(c2cccc3c2C(=O)N(C2CCC(=O)NC2=O)C3=O)CC1` (stereo partly specified): the results for the Activity in assay [1], in [2] and in assay [3] were below 1%, below 1% and 39%, respectively.

Take `Cc1noc(C)c1-c1ccc2c(c1)nc([C@@H]1CCCC(=O)N1c1ccc(F)c(F)c1)n2C1CCN(C(=O)CCOCCOCCOCCNc2ccc3c(c2)C(=O)N(C2CCC(=O)NC2=O)C3=O)CC1` (stereo partly specified): the Activity in [1] is below 1%; in [2], below 1%; in assay [3], 19%.

In the case of `Cc1noc(C)c1-c1ccc2c(c1)nc([C@@H]1CCCC(=O)N1c1ccc(F)c(F)c1)n2C1CCN(C(=O)CCOCCOCCOCCOCCNc2ccc3c(c2)C(=O)N(C2CCC(=O)NC2=O)C3=O)CC1` (stereo partly specified), the results for the Activity in [1], in assay [2] and in [3] were below 1%, below 1% and 28%, respectively.

In the case of `Cc1noc(C)c1-c1ccc2c(c1)nc([C@@H]1CCCC(=O)N1c1ccc(F)c(F)c1)n2C1CCN(C(=O)CCOCCNc2cccc3c2C(=O)N(C2CCC(=O)NC2=O)C3=O)CC1` (stereo partly specified), the Activity in [1] is below 1%; in [2], below 1%; in assay [3] it was 15%.

In the case of `CNC(=O)N1CCc2c(c(N3CCCc4cc(-c5cnn(C)c5)c(C(F)F)cc43)nn2C2CCN(C(=O)CCOCCOCCOCCOCCNc3ccc4c(c3)C(=O)N(C3CCC(=O)NC3=O)C4=O)CC2)C1` (stereo unspecified), the Activity in [1] stood at 3%; in assay [2], 7%; in assay [3], 18%. The IC50 in [4] and in assay [5] was above 20 µM in each case.

With `Cc1noc(C)c1-c1ccc2c(c1)nc([C@@H]1CCCC(=O)N1c1ccc(F)c(F)c1)n2C1CN(C2CN(c3ccc4c(c3)C(=O)N(C3CCC(=O)NC3=O)C4=O)C2)C1` (stereo partly specified), the values for the Activity in assay [1], in assay [2] and in assay [3] were below 1%, below 1% and 27%, respectively.

For the compound `Cc1noc(C)c1-c1ccc2c(c1)nc([C@@H]1CCCC(=O)N1c1ccc(F)c(F)c1)n2C1CN(C2CN(c3cccc4c3C(=O)N(C3CCC(=O)NC3=O)C4=O)C2)C1` (stereo partly specified), the Activity in assay [1] is 3%; in assay [2], below 1%; in [3], 23%.

On to `Cc1noc(C)c1-c1ccc2c(c1)nc([C@@H]1CCCC(=O)N1c1ccc(F)c(F)c1)n2C1CCN(c2ccc3c(c2)C(=O)N(C2CCC(=O)NC2=O)C3=O)CC1` (stereo partly specified), for which the Activity in assay [1] was 6%; in assay [2] it was 9%; in assay [3], 32%.

Regarding `Cc1noc(C)c1-c1ccc2c(c1)nc([C@@H]1CCCC(=O)N1c1ccc(F)c(F)c1)n2C1CCN(C(=O)CCOCCNc2ccc3c(c2)C(=O)N(C2CCC(=O)NC2=O)C3=O)CC1` (stereo partly specified), the Activity in assay [1] was below 1%; in [2], below 1%; in assay [3], 18%.

In the case of `Cc1noc(C)c1-c1ccc2c(c1)nc([C@@H]1CCCC(=O)N1c1ccc(F)c(F)c1)n2C1CCN(C2CCN(c3ccc4c(c3)C(=O)N(C3CCC(=O)NC3=O)C4=O)CC2)CC1` (stereo partly specified), the values for the Activity in assay [1], in assay [2] and in assay [3] were 9%, 5% and 38%, respectively.

As for `Cc1noc(C)c1-c1ccc2c(c1)nc([C@@H]1CCCC(=O)N1c1ccc(F)c(F)c1)n2C1CN(C2CCN(c3ccc4c(c3)C(=O)N(C3CCC(=O)NC3=O)C4=O)CC2)C1` (stereo partly specified), the Activity in assay [1] was 4%; in assay [2], below 1%; in assay [3] it was 26%.

`Cc1noc(C)c1-c1ccc2c(c1)nc([C@@H]1CCCC(=O)N1c1ccc(F)c(F)c1)n2C1CCN(C(=O)CCOCCOCCOCCNc2cccc3c2C(=O)N(C2CCC(=O)NC2=O)C3=O)CC1` (stereo partly specified): the Activity is below 1% in [1], below 1% in assay [2] and 8% in [3].

`Cc1noc(C)c1-c1ccc2c(c1)nc([C@@H]1CCCC(=O)N1c1ccc(F)c(F)c1)n2C1CCN(C(=O)CCOCCOCCOCCOCCNc2cccc3c2C(=O)N(C2CCC(=O)NC2=O)C3=O)CC1` (stereo partly specified): the Activity was below 1% in assay [1], below 1% in assay [2] and 49% in assay [3].

`Cc1noc(C)c1-c1ccc2c(c1)nc([C@@H]1CCCC(=O)N1c1ccc(F)c(F)c1)n2C1CCN(C(=O)CNc2cccc3c2C(=O)N(C2CCC(=O)NC2=O)C3=O)CC1` (stereo partly specified): the Activity is below 1% in [1], below 1% in [2] and 18% in assay [3].

`Cc1noc(C)c1-c1ccc2c(c1)nc([C@@H]1CCCC(=O)N1c1ccc(F)c(F)c1)n2C1CN(C2CCN(c3cccc4c3C(=O)N(C3CCC(=O)NC3=O)C4=O)CC2)C1` (stereo partly specified): the Activity in assay [1] was below 1%; in [2], 8%; in assay [3] it was 28%.

With `Cc1noc(C)c1-c1ccc2c(c1)nc([C@@H]1CCCC(=O)N1c1ccc(F)c(F)c1)n2C1CCN(C(=O)CNc2ccc3c(c2)C(=O)N(C2CCC(=O)NC2=O)C3=O)CC1` (stereo partly specified), the figures for the Activity in assay [1], in assay [2] and in [3] were below 1%, 2% and 3%, respectively.

Take `CC(=O)N1CCC(n2c([C@@H]3CCCC(=O)N3c3ccc(F)c(F)c3)nc3cc(-c4c(C)noc4C)ccc32)CC1`: the figures for the IC50 in assay [8], in [4] and in [5] were 0.026 µM, 4.36 µM and above 20 µM, respectively. Besides, the Activity in assay [6] was found to be 117%; in assay [7], 101%; in assay [11], 105%; in [12], 97%. Besides, the outcome in assay [9] and in [10] was inactive.

For `Cc1noc(C)c1-c1ccc2c(c1)nc([C@@H]1CCCC(=O)N1c1ccc(F)c(F)c1)n2C1CCN(C2CCN(c3cccc4c3C(=O)N(C3CCC(=O)NC3=O)C4=O)CC2)CC1` (stereo partly specified), the Activity in [1] is 4%; in [2], 6%; in [3], 9%.

For `CC(=O)N1CC(n2c([C@@H]3CCCC(=O)N3c3ccc(F)c(F)c3)nc3cc(-c4c(C)noc4C)ccc32)C1`, the concentration for half-maximal inhibition (IC50) in [8] turned out to be 0.025 µM.

For the compound `Cc1noc(C)c1-c1ccc2c(c1)nc([C@@H]1CCCC(=O)N1c1ccc(F)c(F)c1)n2C1CCN(C(=O)CCOCCOCCNc2ccc3c(c2)C(=O)N(C2CCC(=O)NC2=O)C3=O)CC1` (stereo partly specified), the Activity is below 1% in assay [1], below 1% in assay [2] and 29% in assay [3].

In the case of `Cc1noc(C)c1-c1ccc2c(c1)nc([C@@H]1CCCC(=O)N1c1ccc(F)c(F)c1)n2C1CCN(C2CN(c3cccc4c3C(=O)N(C3CCC(=O)NC3=O)C4=O)C2)CC1` (stereo partly specified), the results for the Activity in assay [1], in assay [2] and in assay [3] were below 1%, below 1% and 4%, respectively.

(Values after ChEMBL document CHEMBL5528046, “Discovery of Novel PROTAC Degraders of p300/CBP as Potential Therapeutics for Hepatocellular Carcinoma” (J Med Chem, 2024).)
